Source: patent US6448247B1, “Method for treating an inflammatory disease” (Sankyo Company, Limited, priority 1995, dated 2002)
Like-named read-outs stand apart in the source and are kept apart here.

Columns and labels:
NK1 receptors = target: T1, NK1 receptors (Cavia porcellus, UniProt P30547); assay: NK1 Receptor Binding Test; parameters: species or system guinea pig
T1 construct: A crude membrane fraction was prepared from the lung of male Hartley guinea pigs; from tissue; host or cells: guinea pig lung (crude membrane fraction)
Description: (a) Preparation of Crude Lung Membrane Fraction
A crude membrane fraction was prepared from the lung of male Hartley guinea pigs. The guinea pigs were bled from the cava abdominalis under chloroform anaesthesia and the pulmonary airway tissue was extracted immediately.
The extracted lung was perfused with a buffer (1) (50 mM Tris-HCl, pH 7.4), thinly cut in the buffer, and then homogenised in a buffer (2) [buffer (1) containing 120 mM sodium chloride and 5 mM potassium chloride] using a Polytron homogenizer. The tissue mass was removed from the homogenate by filtration with a nylon mesh (50 μm) and the supernatant was centrifuged (30,000×g, 30 minutes, 4° C.). The resultant pellet was resuspended in an ice-cooled buffer (3) [buffer (1) containing 10 mM EDTA and 300 mM potassium chloride], allowed to stand at 4° C. for 60 minutes and then washed centrifugally twice (30,000×g, 15 minutes, 4° C.).
(§1) The crude membrane fraction was preserved at −80° C. before use.
(§2) (b) Receptor Binding Test
(§3) To a mixed solution (250 μl) of the test drug and [^3H]-substance P (final concentration: 1 nM) (50 mM Tris-HCl, pH 7.4; 6 mM manganese chloride, 800 μg/ml BSA, 8 μg/ml chymostatin, 8 μg/ml leupeptin, 80 μg/ml bacitracin, 20 μg/ml phosphoramidon) was added a crude lung membrane fraction solution (250 μl), followed by incubation at room temperature for 30 minutes.
At the end of this time, a lung membrane ingredient was recovered on a GF/B glass fiber filter (manufactured by Whatman Co.) using an automatic filtering device (manufactured by Brandel Co.).
The glass filter was used after being pre-treated with a 0.1% polyethyleneimine solution for about 4 hours so as to inhibit non-specific binding as little as possible. The membrane ingredient-recovered filter was transferred to a mini-plastic vial containing a pico flow (4 ml) and the radioactivity was measured using a liquid scintillation counter (LSC3000, manufactured by Beckman Co.).

[1] = tested on: bronchoconstriction induced with [Nle^10]-NKA[4-10], an NK2 receptor agonist; assay: Inhibitory Effect on NKA-Induced Bronchoconstriction; format: in vivo, guinea pig; conditions: i.v., male Hartley guinea pigs, airway pressure, test drug 5 min before [Nle^10]-NKA[4-10] i.v.
Description: The inhibitory effect on bronchoconstriction induced with [Nle^10]-NKA[4-10], an NK2 receptor agonist having higher specificity than neurokinin A (NKA), was assessed based on airway pressure as an index according to the modified method of Konzett-Rössler [Naunyn-Schmiedebergs Arch.Exp.Pathol.Pharmakol., 195, 71, (1940)] using guinea pigs (body weight: approximately 500 g, male Hartley guinea pigs).
After canulating the trachea of the guinea pigs under pentobarbital anaesthesia (30 mg/kg, s.c.) and treatment with gallamine (20 mg/kg, i.v.), the animals were ventilated artificially with a constant volume respiration pump (UgoBasile, 7025) at a frequency of 60 per minute and a tidal volume of 8 ml/kg. Airway pressure during artificial respiration was amplified by means of a pressure transducer (Nihon Koden, TP-200T) installed in a branch of the trachea cannula, detected (Nihon Koden, AP-610G), and recorded with a recorder (Nihon Koden, WT-685G). Following pre-treatment with atropine (1 mg/kg, i.v.) and propranolol (1 mg/kg, i.v.), the test drug was administered intravenously. Five minutes later, bronchoconstriction was induced with [Nle^10]-NKA[4-10] at […], i.v., and then airway pressure was measured for 10 minutes. The inhibitory effect was determined based on the intensity of bronchoconstriction of guinea pigs not treated with the test drug, and expressed as the percent of inhibition (%) and the dose level that caused inhibition of 50% (ID50).

NK2 receptors = target: T2, NK2 receptors (Cavia porcellus, UniProt Q64077); assay: NK2 Receptor Binding Test; parameters: species or system guinea pig
T2 construct: A crude membrane fraction was prepared from the ileum of male Hartley guinea pigs; from tissue; host or cells: guinea pig ileum (crude membrane fraction)
T2 sequence (Q64077 1-402): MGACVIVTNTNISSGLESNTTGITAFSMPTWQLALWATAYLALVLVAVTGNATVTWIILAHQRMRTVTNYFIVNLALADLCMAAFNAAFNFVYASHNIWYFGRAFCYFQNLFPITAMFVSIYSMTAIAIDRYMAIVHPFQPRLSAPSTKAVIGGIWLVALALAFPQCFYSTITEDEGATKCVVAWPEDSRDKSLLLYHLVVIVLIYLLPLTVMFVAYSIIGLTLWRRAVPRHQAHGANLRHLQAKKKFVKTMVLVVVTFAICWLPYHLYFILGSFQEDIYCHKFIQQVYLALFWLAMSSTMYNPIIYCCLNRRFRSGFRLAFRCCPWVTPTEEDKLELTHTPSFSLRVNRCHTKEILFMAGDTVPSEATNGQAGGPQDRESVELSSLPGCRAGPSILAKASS
Description: (a) Preparation of Crude Ileum Membrane Fraction
A crude membrane fraction was prepared from the ileum of male Hartley guinea pigs. The guinea pigs were bled from the cava abdominalis under chloroform anaesthesia and the ileum was extracted immediately.
After the contents, secreta and epithelium of the lumen had been scraped off using a glass slide, the extracted ileum was thinly cut in a buffer (1) (50 mM Tris-HCl, pH 7.4) and then homogenised in a buffer (2) [buffer (1) containing 120 mM sodium chloride and 5 mM potassium chloride] using a Polytron homogenizer.
The tissue mass was removed from the homogenate by filtration with a nylon mesh (50 μm) and the supernatant was centrifuged (30,000×g, 30 minutes, 4° C.). The resultant pellet was resuspended in an ice-cooled buffer (3) [buffer (1) containing 10 mM EDTA and 30 mM potassium chloride], allowed to stand at 4° C. for 60 minutes and then washed centrifugally twice (30,000×g, 15 minutes, 4° C.).
as §1, §2
as §3, with “and [^3H]-SR-48968 (manufactured by Amasham Co., final” for “and [^3H]-substance P (final”, “7.4; 4.6” for “7.4; 6”, “[…]” for “20 μg/ml”, “crude ileum” for “crude lung”
At the end of this time, a membrane ingredient was recovered on a GF/B glass fiber filter (manufactured by Whatman Co.) using an automatic filtering device (manufactured by Brandel Co.). The glass filter was used after pre-treatment with a 0.1% polyethyleneimine solution for about 4 hours so as to inhibit non-specific binding as little as possible.
The membrane ingredient-recovered filter was transferred to a mini-plastic vial containing a pico flow (4 ml) and the radioactivity was measured using a liquid scintillation counter (LSC3000, manufactured by Beckman Co.).

[2] = tested on: increased vascular permeability induced by substance P (SP), an NK1 receptor agonist; assay: Inhibitory Effect on SP-Induced Increased Vascular Permeability; format: in vivo, guinea pig; conditions: i.v., male Hartley guinea pigs, pigment (Evans blue) leakage into primary bronchus 15 min after SP i.v.
Description: The inhibitory effect on increased vascular permeability induced by substance P (SP), an NK1 receptor agonist, was assessed based on the amount of pigment leakage as an index using guinea pigs (body weight: approx. 400 g, male Hartley guinea pigs). Immediately after administering pigment (Evans blue: 20 mg/kg, i.v.) and the test drug in that order into the femoral vein of the guinea pigs under pentobarbital anaesthesia (25 mg/kg, i.p.), increased vascular permeability was induced by administration of SP ([…], i.v.). Fifteen minutes later, the guinea pigs were sacrificed by chloroform anaesthesia and the amount of pigment that leaked into the primary bronchus was measured according to the method of Harada (J. Pharm. Pharmacol., 23, 218, 1971). Inhibitory effect was determined based on the amount of pigment leakage found in guinea pigs not treated with the test drug, and expressed as the percent of inhibition (%) and the dose level that caused inhibition of 50% (ID50).

[3] = [3H]-substance P 1 nM, crude lung membrane fraction of male Hartley guinea pigs, read-out: IC50 (converted)
[4] = [3H]-SR-48968 1 nM, crude ileum membrane fraction of male Hartley guinea pigs, read-out: IC50 (converted)

T1 sequence (P30547 whole entry): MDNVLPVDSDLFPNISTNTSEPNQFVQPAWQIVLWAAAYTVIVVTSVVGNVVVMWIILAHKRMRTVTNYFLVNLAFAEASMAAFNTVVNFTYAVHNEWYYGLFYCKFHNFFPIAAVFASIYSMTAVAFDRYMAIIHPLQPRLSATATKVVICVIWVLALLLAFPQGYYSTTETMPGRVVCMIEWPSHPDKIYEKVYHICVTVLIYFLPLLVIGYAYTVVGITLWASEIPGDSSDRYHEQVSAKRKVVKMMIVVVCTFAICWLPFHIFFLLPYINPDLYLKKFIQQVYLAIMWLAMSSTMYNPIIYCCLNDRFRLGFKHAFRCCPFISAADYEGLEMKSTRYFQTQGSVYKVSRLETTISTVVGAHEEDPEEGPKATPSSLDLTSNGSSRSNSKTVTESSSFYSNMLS

| SMILES | IC50 (NK1 receptors; [3]) [nM] | ID50 [1] [mg/kg] | IC50 (NK2 receptors; [4]) [nM] | ID50 [2] [mg/kg] | activity in NK2 binding test (in words) (NK2 receptors; comment on Table 5) | IC50 (NK1 receptors) [nM] | IC50 (NK2 receptors) [nM] |
| --- | --- | --- | --- | --- | --- | --- | --- |
| COc1cc(C(=O)N2CO[C@](CCN3CCC4(CC3)c3ccccc3C[S@+]4[O-])(c3ccc(Cl)c(Cl)c3)C2)cc(OC)c1OC [Example 75, 1-{2-[(5R)-(3,4-Dichlorophenyl)-3-(3,4,5-trimethoxybenzoyl)oxazolidine-5-yl]ethyl}spiro[benzo[c]thiophene-1(3H),4′-piperidine]-(2S)-oxide] | 8.94 | 0.074 | 1.29 | 0.025 | – | – | – |
| COc1cc(C(=O)N2CC[C@](CCN3CCC(C(N)=O)(c4ccccc4)CC3)(c3ccc(Cl)c(Cl)c3)C2)cc(OC)c1OC [Compound C] | 10.1 | 1.7 | 48.4 | 0.019 | very weak activity | – | – |
| COc1cc(C(=O)N2CCOC(CCN3CCC4(CC3)c3ccccc3C[S+]4[O-])(c3ccc(Cl)c(Cl)c3)C2)cc(OC)c1OC [Example 76, 1-{2-[(2R)-(3,4-Dichlorophenyl)-4-(3,4,5-trimethoxybenzoyl)morpholin-2-yl]ethyl}spiro[benzo[c]thiophene-1(3H),4′-piperidine]-(2S)-oxide] | – | 0.047 | – | 0.047 | – | – | – |
| Cc1cc(C)cc(C(=O)N(C)C[C@@H](CCN2CCC3(CC2)CN(S(C)(=O)=O)c2ccccc23)c2ccc(Cl)c(Cl)c2)c1 [Compound A] | 60.4 | >10 | 28.6 | 5.8 | – | – | – |
| CN(C[C@@H](CCN1CCC2(CCc3ccccc32)CC1)c1ccc(Cl)c(Cl)c1)C(=O)c1ccccc1 [Compound B] | – | 0.37 | – | >10 | – | > 1920 | 4.22 |
